In the assay the test system is T47D pAKT (S473), PI3Kα H1047R mutation present. The assay can be described thus: HTRF pAKT-T47D.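 Further: assay medium was RPMI with 10% FBS and 0.2 units/ml bovine insulin, without phenol red.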 The settings on record: Homo sapiens, T47D, 1 h. In general terms: TR-FRET usually uses a lanthanide donor and a delayed reading to cut background.
The mark [1] stands for this setting: read-out: T47D pAKT IC50 (nM), T47D.1 cells, pAKT (S473) HTRF, 1 hour.

Read-outs that look alike come from different tables or passages of the source.

For the compound `Cc1c([C@@H](NC(=O)Nc2cnc(N3CC(C)(O)C3)nc2)C(C)C)oc2ccc(F)cc12` [Compound 96, (S)-1-(1-(5-fluoro-3-methylbenzofuran-2-yl)-2-methylpropyl)-3-(2-(3-hydroxy-3-methylazetidin-1-yl)pyrimidin-5-yl)urea], the 50% inhibitory concentration (IC50) (as a rule, the concentration that gives 50% inhibition) under setting [1] is under 1000 nM.
Take `Cc1c([C@@H](NC(=O)Nc2cnc(N3CC(C)(O)C3)nc2)C(F)(F)F)oc2ccc(F)cc12` [Compound 98, (R)-1-(2-(3-hydroxy-3-methylazetidin-1-yl)pyrimidin-5-yl)-3-(2,2,2-trifluoro-1-(5-fluoro-3-methylbenzofuran-2-yl)ethyl)urea]: the concentration for half-maximal inhibition (IC50) under setting [1] was under 1000 nM.
With `Cc1c([C@H](C)NC(=O)Nc2cnc(N)nc2)oc2ccc(F)cc12` [Compound 101, (S)-1-(2-aminopyrimidin-5-yl)-3-(1-(5-fluoro-3-methylbenzofuran-2-yl)ethyl)urea], the IC50 under setting [1] was in the range of 1000 to 5000 nM.
Same read-out and setting: the figure for `Cc1c([C@@H](NC(=O)Nc2ccc3c(c2)C(=O)OC3)C(C)C)oc2ccc(F)cc12` [Compound 102, 3-[(1S)-1-(5-fluoro-3-methyl-1-benzofuran-2-yl)-2-methylpropyl]-1-(3-oxo-1H-2-benzofuran-5-yl)urea] is 1000 to 5000 nM.
Take `Cc1c([C@@H](NC(=O)Nc2ccc3c(c2)C(=O)N(C)C3)C(C)C)oc2ccc(F)cc12` [Compound 103]: the concentration for half-maximal inhibition (IC50) under setting [1] fell in the range of 1000 to 5000 nM.
Same read-out and setting: in the case of `CNC(=O)c1cc(NC(=O)N[C@H](c2oc3ccc(F)cc3c2C)C(C)C)ccc1OC` [Compound 104] it was under 1000 nM; in that of `Cc1c([C@@H](NC(=O)Nc2cccc(N3CCC3=O)c2)C(C)C)oc2ccc(F)cc12` [Compound 105], 1000 to 5000 nM; in that of `Cc1c([C@@H](NC(=O)Nc2cnc(N3CCNCC3)nc2)C(C)C)oc2ccc(F)cc12` [Compound 106, (S)-1-(1-(5-fluoro-3-methylbenzofuran-2-yl)-2-methylpropyl)-3-(2-(piperazin-1-yl)pyrimidin-5-yl)urea], 1000 to 5000 nM.
Turning to `Cc1c([C@@H](NC(=O)Nc2cnc(N3CCOCC3)nc2)C(C)C)oc2ccc(F)cc12` [Compound 107], the concentration for half-maximal inhibition (IC50) under setting [1] is under 1000 nM.
On to `Cc1c([C@@H](NC(=O)Nc2cnc(C(=O)N(C)C)s2)C(C)C)oc2ccc(F)cc12` [Compound 121, (S)-5-(3-(1-(5-fluoro-3-methylbenzofuran-2-yl)-2-methylpropyl)ureido)-N,N-dimethylthiazole-2-carboxamide], for which the IC50 under setting [1] lay in the range of 1000 to 5000 nM.
For the compound `Cc1c([C@@H](NC(=O)Nc2csc(C(N)=O)c2)C(C)C)oc2ccc(F)cc12` [Compound 123, (S)-4-(3-(1-(5-fluoro-3-methylbenzofuran-2-yl)-2-methylpropyl)ureido)thiophene-2-carboxamide], under setting [1], the IC50 fell in the range of 1000 to 5000 nM.
Still for that read-out and setting: the figure for `Cc1c([C@@H](NC(=O)Nc2ccc3nc[nH]c(=O)c3c2)C(C)C)oc2ccc(F)cc12` [Compound 124, (S)-1-(1-(5-fluoro-3-methylbenzofuran-2-yl)-2-methylpropyl)-3-(4-oxo-3,4-dihydroquinazolin-6-yl)urea] is 1000 to 5000 nM; for `Cc1c([C@@H](NC(=O)Nc2cccc(-c3nnnn3C)c2)C(C)C)oc2ccc(F)cc12` [Compound 125, (S)-1-(1-(5-fluoro-3-methylbenzofuran-2-yl)-2-methylpropyl)-3-(3-(1-methyl-1H-tetrazol-5-yl)phenyl)urea] it is 1000 to 5000 nM; for `Cc1c([C@@H](NC(=O)Nc2ccc(Cl)c(S(C)(=O)=O)c2)C(C)C)oc2ccc(F)cc12` [Compound 126, (S)-1-(4-chloro-3-(methylsulfonyl)phenyl)-3-(1-(5-fluoro-3-methylbenzofuran-2-yl)-2-methylpropyl)urea] it is 1000 to 5000 nM.
On the same count and under the same terms, the figure for `Cc1c([C@@H](NC(=O)Nc2cnc(N3CC(S(C)(=O)=O)C3)nc2)C(C)C)oc2ccc(F)cc12` [Compound 128, (S)-1-(1-(5-fluoro-3-methylbenzofuran-2-yl)-2-methylpropyl)-3-(2-(3-(methylsulfonyl)azetidin-1-yl)pyrimidin-5-yl)urea] is 1000 to 5000 nM; for `Cc1c([C@@H](NC(=O)Nc2cnc(NCC(N)=O)nc2)C(C)C)oc2ccc(F)cc12` [Compound 134, (S)-2-((5-(3-(1-(5-fluoro-3-methylbenzofuran-2-yl)-2-methylpropyl)ureido)pyrimidin-2-yl)amino)acetamide] it is under 1000 nM; for `Cc1c([C@@H](NC(=O)Nc2cnc(N3CC4(COC4)C3)nc2)C(C)C)oc2ccc(F)cc12` [Compound 135] it is under 1000 nM.
Regarding `Cc1c([C@@H](NC(=O)Nc2cnc(NC3COC3)nc2)C(C)C)oc2ccc(F)cc12` [Compound 136], the half-inhibitory concentration (IC50) under setting [1] is under 1000 nM.
On the same count and under the same terms, in the case of `Cc1c([C@@H](NC(=O)Nc2cnc(NCCCO)nc2)C(C)C)oc2ccc(F)cc12` [Compound 137] it was under 1000 nM; in that of `COC1CN(c2ncc(NC(=O)N[C@H](c3oc4ccc(F)cc4c3C)C(C)C)cn2)C1` [Compound 138], under 1000 nM; in that of `Cc1c([C@@H](NC(=O)Nc2cnc(N3CCNC(=O)C3)nc2)C(C)C)oc2ccc(F)cc12` [Compound 139], under 1000 nM.
In the case of `Cc1c([C@@H](NC(=O)Nc2cnc(N3CCC(O)CC3)nc2)C(C)C)oc2ccc(F)cc12` [Compound 140], under setting [1], the IC50 was under 1000 nM.
Regarding `Cc1c([C@@H](NC(=O)Nc2cnc(N3CCC(C)(O)CC3)nc2)C(C)C)oc2ccc(F)cc12` [Compound 141], the IC50 under setting [1] is under 1000 nM.
With `Cc1c([C@@H](NC(=O)Nc2cnc(NCC(C)(C)O)nc2)C(C)C)oc2ccc(F)cc12` [Compound 142], under setting [1], the IC50 was under 1000 nM.
Take `Cc1c([C@@H](NC(=O)Nc2cnc(NC[C@@H](C)O)nc2)C(C)C)oc2ccc(F)cc12` [Compound 143]: the IC50 under setting [1] is under 1000 nM.
Regarding `CCC1(O)CN(c2ncc(NC(=O)N[C@H](c3oc4ccc(F)cc4c3C)C(C)C)cn2)C1` [Compound 144], under setting [1], the half-maximal inhibitory concentration (IC50) is under 1000 nM.
`Cc1c([C@@H](NC(=O)Nc2cnc(N3CCSCC3)nc2)C(C)C)oc2ccc(F)cc12` [Compound 145, 3-[(1S)-1-(5-fluoro-3-methyl-1-benzofuran-2-yl)-2-methylpropyl]-1-[2-(thiomorpholin-4-yl)pyrimidin-5-yl]urea]: the concentration for half-maximal inhibition (IC50) under setting [1] was under 1000 nM.
As for `Cc1c([C@@H](NC(=O)Nc2cnc(N3CCS(=O)(=O)CC3)nc2)C(C)C)oc2ccc(F)cc12` [Compound 146, 1-[2-(1,1-dioxo-1lambda6-thiomorpholin-4-yl)pyrimidin-5-yl]-3-[(1S)-1-(5-fluoro-3-methyl-1-benzofuran-2-yl)-2-methylpropyl]urea], the half-inhibitory concentration (IC50) under setting [1] was under 1000 nM.
In the case of `Cc1c([C@@H](NC(=O)Nc2cnc(N3CCS(=N)(=O)CC3)nc2)C(C)C)oc2ccc(F)cc12` [Compound 147, 3-[(1S)-1-(5-fluoro-3-methyl-1-benzofuran-2-yl)-2-methylpropyl]-1-[2-(1-imino-1-oxo-1lambda6-thiomorpholin-4-yl)pyrimidin-5-yl]urea], the half-inhibitory concentration (IC50) under setting [1] is under 1000 nM.
`COc1ncc(NC(=O)N[C@H](c2oc3ccc(F)cc3c2C)C(C)C)cn1` [Compound 150, (S)-1-(1-(5-fluoro-3-methylbenzofuran-2-yl)-2-methylpropyl)-3-(2-methoxypyrimidin-5-yl)urea]: the IC50 under setting [1] is under 1000 nM.
In the case of `Cc1c([C@@H](NC(=O)Nc2cnc(OCCO)nc2)C(C)C)oc2ccc(F)cc12` [Compound 151, (S)-1-(1-(5-fluoro-3-methylbenzofuran-2-yl)-2-methylpropyl)-3-(2-(2-hydroxyethoxy)pyrimidin-5-yl)urea], the concentration for half-maximal inhibition (IC50) under setting [1] is under 1000 nM.
On to `Cc1c([C@@H](NC(=O)Nc2cnc(OCC3(O)CC3)nc2)C(C)C)oc2ccc(F)cc12` [Compound 152], for which the concentration for half-maximal inhibition (IC50) under setting [1] is under 1000 nM.
Take `CC(=O)Nc1ncc(NC(=O)N[C@H](c2oc3ccc(F)cc3c2C)C(C)C)cn1` [Compound 159]: where the note is “read-out: T47D pAKT IC50 (nM)”, the IC50 was under 1000 nM.
Regarding `Cc1c([C@@H](NC(=O)Nc2cnc3nccn3c2)C(C)C)oc2ccc(F)cc12` [Compound 160, (S)-1-(1-(5-fluoro-3-methylbenzofuran-2-yl)-2-methylpropyl)-3-(imidazo[1,2-a]pyrimidin-6-yl)urea], the IC50 under setting [1] was under 1000 nM.
The same measure, in the same setting: the figure for `Cc1c([C@@H](NC(=O)Nc2cnc(N3CCNC3=O)nc2)C(C)C)oc2ccc(F)cc12` [Compound 161, 3-[(1S)-1-(5-fluoro-3-methyl-1-benzofuran-2-yl)-2-methylpropyl]-1-[2-(2-oxoimidazolidin-1-yl)pyrimidin-5-yl]urea] is under 1000 nM; for `COC(=O)Nc1ncc(NC(=O)N[C@H](c2oc3ccc(F)cc3c2C)C(C)C)cn1` [Compound 162, methyl N-[5-({[(1S)-1-(5-fluoro-3-methyl-1-benzofuran-2-yl)-2-methylpropyl]carbamoyl}amino)pyrimidin-2-yl]carbamate] it is under 1000 nM.
Regarding `CNC(=O)C1CN(c2ncc(NC(=O)N[C@H](c3oc4ccc(F)cc4c3C)C(C)C)cn2)C1` [Compound 163, 1-[5-({[(1S)-1-(5-fluoro-3-methyl-1-benzofuran-2-yl)-2-methylpropyl]carbamoyl}amino)pyrimidin-2-yl]-N-methylazetidine-3-carboxamide], the IC50 under setting [1] is under 1000 nM.
Consider `Cc1c([C@@H](NC(=O)Nc2cnc(N3CC4(CCO4)C3)nc2)C(C)C)oc2ccc(F)cc12` [Compound 164, 3-[(1S)-1-(5-fluoro-3-methyl-1-benzofuran-2-yl)-2-methylpropyl]-1-(2-{1-oxa-6-azaspiro[3.3]heptan-6-yl}pyrimidin-5-yl)urea], for which, under setting [1], the IC50 was under 1000 nM.
Turning to `Cc1c([C@@H](NC(=O)Nc2cnc(N3CC4(CCCO4)C3)nc2)C(C)C)oc2ccc(F)cc12` [Compound 165, 3-[(1S)-1-(5-fluoro-3-methyl-1-benzofuran-2-yl)-2-methylpropyl]-1-(2-{5-oxa-2-azaspiro[3.4]octan-2-yl}pyrimidin-5-yl)urea], the 50% inhibitory concentration (IC50) under setting [1] was under 1000 nM.
Take `Cc1c([C@@H](NC(=O)Nc2cnc(N3CC4(CNC(=O)CO4)C3)nc2)C(C)C)oc2ccc(F)cc12` [Compound 166, 3-[(1S)-1-(5-fluoro-3-methyl-1-benzofuran-2-yl)-2-methylpropyl]-1-(2-{7-oxo-5-oxa-2,8-diazaspiro[3.5]nonan-2-yl}pyrimidin-5-yl)urea]: the IC50 under setting [1] was under 1000 nM.

Source of the values: patent US12084434B2 (Scorpion Therapeutics, Inc., priority 2021, dated 2024).
